The species entered for assay [1] is Homo sapiens. Put plainly: Selectivity ratio of IC50 for PI3Kbeta (unknown origin) to IC50 for PI3Kgamma (unknown origin).
Assay [2] concerns the target T1, Phosphatidylinositol 4,5-bisphosphate 3-kinase catalytic subunit gamma isoform (Homo sapiens, UniProt P48736). Put plainly: Inhibition of PI3Kgamma in human THP1 cells assessed as reduction in MCP1-induced Akt phosphorylation at Thr308/Ser473 residue preincubated for 1 hr followed by MCP1 stimulation for 3 mins by FACS analysis. It counts as cell-based.
The species entered for assay [3] is Homo sapiens. Put plainly: Selectivity ratio of IC50 for PI3Kalpha (unknown origin) to IC50 for PI3Kgamma (unknown origin).
Assay [4] is filed under the species Homo sapiens. Put plainly: Selectivity ratio of IC50 for PI3Kdelta (unknown origin) to IC50 for PI3Kgamma (unknown origin).
For assay [5], the target named is T1, Phosphatidylinositol 4,5-bisphosphate 3-kinase catalytic subunit gamma isoform. Put plainly: Inhibition of PI3Kgamma (unknown origin) using PIP2 as substrate measured after 15 mins in presence of [33P]ATP by scintillation counting method.

Among the data in ChEMBL document CHEMBL4382294, “Synthesis of a 6-Aza-Isoindolinone-Based Inhibitor of Phosphoinositide 3-Kinase γ via Ruthenium-Catalyzed [2 + 2 + 2] Cyclotrimerization” (ACS Med Chem Lett, 2019) are Ratio IC50, IC50 and Ki values, retold here.

Structures are written as SMILES.

T1 sequence (P48736 whole entry, canonical isoform): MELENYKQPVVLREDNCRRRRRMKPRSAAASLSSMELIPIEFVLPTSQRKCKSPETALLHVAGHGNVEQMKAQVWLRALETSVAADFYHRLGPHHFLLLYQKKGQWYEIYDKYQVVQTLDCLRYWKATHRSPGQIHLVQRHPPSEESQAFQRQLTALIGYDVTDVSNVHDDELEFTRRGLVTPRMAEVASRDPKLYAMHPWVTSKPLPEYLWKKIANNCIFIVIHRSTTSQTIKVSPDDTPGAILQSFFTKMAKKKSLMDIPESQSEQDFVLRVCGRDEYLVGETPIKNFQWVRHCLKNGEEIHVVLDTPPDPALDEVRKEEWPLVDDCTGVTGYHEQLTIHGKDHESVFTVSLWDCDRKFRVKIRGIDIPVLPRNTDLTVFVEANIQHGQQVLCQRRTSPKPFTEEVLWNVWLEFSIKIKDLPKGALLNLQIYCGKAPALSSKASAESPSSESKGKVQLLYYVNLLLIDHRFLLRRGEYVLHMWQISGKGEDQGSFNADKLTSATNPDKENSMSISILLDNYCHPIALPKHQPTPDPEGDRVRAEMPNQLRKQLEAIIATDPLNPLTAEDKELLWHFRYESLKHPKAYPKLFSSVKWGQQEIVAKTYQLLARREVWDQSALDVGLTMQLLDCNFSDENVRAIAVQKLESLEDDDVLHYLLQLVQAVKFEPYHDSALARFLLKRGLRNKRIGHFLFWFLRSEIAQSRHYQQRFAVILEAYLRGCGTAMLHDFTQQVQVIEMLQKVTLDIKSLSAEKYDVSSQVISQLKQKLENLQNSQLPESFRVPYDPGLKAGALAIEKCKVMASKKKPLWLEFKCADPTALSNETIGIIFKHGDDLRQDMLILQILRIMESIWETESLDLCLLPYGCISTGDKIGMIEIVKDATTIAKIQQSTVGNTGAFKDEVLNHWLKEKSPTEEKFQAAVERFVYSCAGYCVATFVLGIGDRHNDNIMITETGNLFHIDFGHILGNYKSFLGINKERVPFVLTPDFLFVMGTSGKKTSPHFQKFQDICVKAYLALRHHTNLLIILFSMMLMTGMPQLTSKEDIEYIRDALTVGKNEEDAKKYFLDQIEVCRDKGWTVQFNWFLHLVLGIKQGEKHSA

As to `COc1cc(-c2ccc3c(n2)CN(c2cnn(CC(F)(F)F)c2)C3=O)cnc1OC`, the Ratio IC50 in assay [1] worked out at 31; in assay [3], 65; in assay [4], 13. Besides, the IC50 in assay [2] came to 47 nM.

As to `COc1cc(-c2cc3c(c(C)n2)C(=O)N(c2cnn(CC(F)(F)F)c2)C3)cnc1OC`, the Ratio IC50 was 8 in assay [1], 15 in assay [3] and 6 in assay [4]. Further, the 50% inhibitory concentration (IC50) in assay [2] is 270 nM. In addition, the inhibition constant Ki in assay [5] came out at 14 nM.
